The record followed here is ChEMBL document CHEMBL1649564, “Anidulafungin treatment of candidal central nervous system infection in a murine model” (Antimicrob Agents Chemother, 2009).

Each structure is given as a SMILES string. In brackets after ≈: the same amount, converted by molar mass. Activity calls are given as the source filed them. The calls are words filed in the database; no cut-off is given here. Numbered stars: 1 amine (or outer) side, 2 acyl side, 3 side chain; on linkers, the order of the positions; unused ones are H or OH. Bridge positions count the residues as written; N and C are the ends. Square brackets hold non-standard residues; d marks the D form. Peptide text beside a SMILES is read from it. * marks the point of attachment. pTerphenylCO(4''-OnC5H11) = CCCCCOc1ccc(-c2ccc(-c3ccc(C(=O)*)cc3)cc2)cc1; Orn(4R-OH,5R-OH) = O=C([C@H](C[C@@H](O)[C@@H](O)N[*:3])N[*:1])[*:2]; hTyr(3S-OH,4S-OH) = N[C@H](C(=O)O)[C@H](O)[C@@H](O)c1ccc(O)cc1; Pro(3S-OH,4S-Me) = C[C@H]1CN[C@H](C(=O)O)[C@H]1O; Hyp = O=C(O)[C@@H]1C[C@@H](O)CN1

The nature of data set [1]: Plasma concentration in mouse infected with Candida albicans at 10 mg/kg, ip after 1 hr. The format is ADME, organism-based. The arrangement: dose 10 mg/kg, route intraperitoneal. The conditions noted are these: read-out: MIC.
The subject of data set [2] is Candida albicans. Nature of the data set: Antifungal activity against Candida albicans infected in mouse assessed as fungal load in brain at 10 mg/kg, ip after 10 days. Type of data set: functional. The conditions noted are these: route intraperitoneal.
Data set [3] in a line: Plasma concentration in mouse infected with Candida albicans at 5 mg/kg, ip after 3 hrs. The arrangement: dose 5 mg/kg, route intraperitoneal. The format is ADME, organism-based. The conditions noted are these: read-out: MIC.
The nature of data set [4]: Plasma concentration in mouse infected with Candida albicans at 5 mg/kg, ip after 6 hrs. Type of data set: ADME, organism-based. The arrangement: dose 5 mg/kg, route intraperitoneal. To be noted: read-out: MIC.
For data set [5], the system named is Candida albicans. Nature of the data set: Antifungal activity against Candida albicans. Type of data set: functional.
Data set [6] in a line: Plasma concentration in mouse infected with Candida albicans at 5 mg/kg, ip after 1 hr. Type of data set: ADME, organism-based. The arrangement: dose 5 mg/kg, route intraperitoneal. The conditions noted are these: read-out: MIC.
Data set [7] is described as follows: Plasma concentration in mouse infected with Candida albicans at 10 mg/kg, ip after 12 hrs. Type of data set: ADME, organism-based. The arrangement: dose 10 mg/kg, route intraperitoneal. The conditions noted are these: read-out: MIC.
Data set [8] can be described thus: Plasma concentration in mouse infected with Candida albicans at 5 mg/kg, ip after 24 hrs. Type of data set: ADME, organism-based. The arrangement: dose 5 mg/kg, route intraperitoneal. To be noted: read-out: MIC.
Data set [9] in a line: Plasma concentration in mouse infected with Candida albicans at 5 mg/kg, ip after 12 hrs. The arrangement: dose 5 mg/kg, route intraperitoneal. The conditions noted are these: read-out: MIC. The format is ADME, organism-based.
The nature of data set [10]: Plasma concentration in mouse infected with Candida albicans at 10 mg/kg, ip after 24 hrs. Type of data set: ADME, organism-based. The arrangement: dose 10 mg/kg, route intraperitoneal. To be noted: read-out: MIC.
Data set [11] concerns Candida albicans. Nature of the data set: Antifungal activity against Candida albicans infected in mouse assessed as decrease in fungus-induced mortality rate at 5 mg/kg, ip. The format is functional, organism-based. The arrangement: dose 5 mg/kg.
A short description of data set [12]: Plasma concentration in mouse infected with Candida albicans at 10 mg/kg, ip after 3 hrs. The format is ADME, organism-based. The arrangement: dose 10 mg/kg, route intraperitoneal. The conditions noted are these: read-out: MIC.
A short description of data set [13]: Plasma concentration in mouse infected with Candida albicans at 10 mg/kg, ip after 6 hrs. The format is ADME, organism-based. The arrangement: dose 10 mg/kg, route intraperitoneal. To be noted: read-out: MIC.
Data set [14] concerns Candida albicans. Nature of the data set: Antifungal activity against Candida albicans infected in mouse assessed as decrease in fungal load in brain at 5 mg/kg, ip after 10 days. The format is functional, organism-based. The arrangement: dose 5 mg/kg.
For data set [15], the system named is Candida albicans. Description: Antifungal activity against Candida albicans infected in mouse assessed as decrease in fungus-induced mortality rate at 10 mg/kg, ip. The arrangement: dose 10 mg/kg. Type of data set: functional, organism-based.
Data set [16] concerns Candida albicans. Nature of the data set: Antifungal activity against Candida albicans infected in mouse assessed as decrease in fungus-induced mortality rate at 60 mg/kg, po. The format is functional, organism-based. The arrangement: dose 60 mg/kg.
The subject of data set [17] is Candida albicans. Description: Antifungal activity against Candida albicans infected in mouse assessed as fungal load in brain at 60 mg/kg, po after 10 days. Type of data set: functional.
Data set [18] in a line: Plasma concentration in mouse infected with Candida albicans at 60 mg/kg, po after 6 hrs. The arrangement: dose 60 mg/kg, route oral. The format is ADME, organism-based. To be noted: read-out: MIC.
The nature of data set [19]: Plasma concentration in mouse infected with Candida albicans at 60 mg/kg, po after 24 hrs. Type of data set: ADME, organism-based. The arrangement: dose 60 mg/kg, route oral. To be noted: read-out: MIC.
A short description of data set [20]: Plasma concentration in mouse infected with Candida albicans at 60 mg/kg, po after 12 hrs. The format is ADME, organism-based. The arrangement: dose 60 mg/kg, route oral. The conditions noted are these: read-out: MIC.
The nature of data set [21]: Plasma concentration in mouse infected with Candida albicans at 60 mg/kg, po after 1 hr. The arrangement: dose 60 mg/kg, route oral. The conditions noted are these: read-out: MIC. Type of data set: ADME, organism-based.
The nature of data set [22]: Plasma concentration in mouse infected with Candida albicans at 60 mg/kg, po after 3 hrs. Type of data set: ADME, organism-based. The arrangement: dose 60 mg/kg, route oral. To be noted: read-out: MIC.

Broadly, the MIC is the least concentration at which growth counts as inhibited. Higher therefore signals a less susceptible organism. Regarding `CCCCCOc1ccc(-c2ccc(-c3ccc(C(=O)N[C@H]4C[C@@H](O)[C@@H](O)NC(=O)[C@@H]5[C@@H](O)[C@@H](C)CN5C(=O)[C@H]([C@@H](C)O)NC(=O)[C@H]([C@H](O)[C@@H](O)c5ccc(O)cc5)NC(=O)[C@@H]5C[C@@H](O)CN5C(=O)[C@H]([C@@H](C)O)NC4=O)cc3)cc2)cc1` [ANIDULAFUNGIN] ({pTerphenylCO(4''-OnC5H11)}-[Orn(4R-OH,5R-OH)]T[Hyp][hTyr(3S-OH,4S-OH)]T[Pro(3S-OH,4S-Me)]; lactam 1-C), the concentration at 1 h in data set [1] turned out to be 4020 ng/mL; in data set [6], 2500 ng/mL. Also, in the data set with Candida albicans [2], the log10CFU/g amounted to 2.65. The concentration at 3 h in [3] came to 1730 ng/mL; in data set [12] it was 4910 ng/mL. The concentration at 6 h in [4] came out at 1660 ng/mL; in data set [13], 3180 ng/mL. Moreover, the MIC against Candida albicans [5] is 0.03 µg/mL (≈ 0.0263 µM). Further, the values for the concentration at 12 h in data set [7] and in data set [9] were 2730 ng/mL and 1180 ng/mL, respectively. Moreover, the concentration at 24 h in data set [8] was determined as 180 ng/mL; in data set [10] it was 1390 ng/mL. Besides, the inhibition result with Candida albicans [11] and in the data set on Candida albicans [14] was “inactive” in each case.

On to `C[C@@H](c1ncncc1F)[C@](O)(Cn1cncn1)c1ccc(F)cc1F` [VORICONAZOLE], for which the outcome in the data set with Candida albicans [15] was Active. Moreover, the inhibition result in the data set on Candida albicans [16] was “Active”. In the data set on Candida albicans [5], this compound came in with an MIC of 0.06 µg/mL (≈ 0.172 µM). For the same compound, the log10CFU/g with Candida albicans [17] turned out to be 3.23. Besides, the concentration at 6 h in data set [18] is 9470 ng/mL. Besides, in [19], the concentration at 24 h stood at 160 ng/mL. Besides, the concentration at 12 h in data set [20] worked out at 5370 ng/mL. For the same compound, the concentration at 1 h in data set [21] worked out at 7410 ng/mL. In data set [22], the concentration at 3 h came out at 7280 ng/mL.
